Patent US8513484B2, “Fish cancer model” (Temasek Life Sciences Laboratory Limited, priority 2005, dated 2013)

Tests used:
[1] = tested on: EGFP-positive cells of embryos injected with EGFP-zK-rasB(V12) construct; test: Drug tests on zebrafish embryos injected with EGFP-zK-rasB(V12) construct (neoplastic transformation of EGFP-positive cells); format: in vivo; settings: for Effects: preliminary screen; for specific effect on the EGFP-positive cells: 1 μg/ml; for effect on the transformed cells: 3 μg/ml
Procedure: 5-10 pg of plasmid DNA were injected into zebrafish embryos at the 1-2-cell stage. The actual concentration of DNA was empirically adjusted to produce 50% embryo survival rate.
A SMZ1500 Stereoscopic Zoom Microscope (Nikon) equipped with the epi-fluorescence attachment and DXM1200F digital camera (Nikon) with original software was used for image analysis.

developing embryo = test: Toxicity of drugs for the developing embryo; format: in vivo, zebrafish
Procedure: Drugs from BIOMOL® ICCB Known Bioactives Library Cat #2840 were used for drug tests. Drugs were diluted in standard fish water from the 5-mg/ml DMSO stock solutions. The injected embryos were sorted at 8 hours post fertilization (hpf) and the normally developing were selected for drug treatment. Ten to fifteen embryos per well were plated into 24-well microtiter plate and overlayed with 1.5 ml drug solution at 10 hpf. Embryos were incubated in the dark at 28° C. The results were observed every day until 5 days post fertilization (dpf).
To evaluate feasibility of the model for drug discovery, a mini-screening was performed using selected compounds from BIOMOL® ICCB Known Bioactives Library. The embryos injected with EGFP-zK-rasB(V12) construct were treated with various drugs in 24-well microtiter plates. The drugs were administered into the standard fish water starting at 10 hpf. Concentration of drugs was proposed based on data from a preliminary screening for developmental toxicity.

[2] = tested on: E-cadherin-mediated cell adhesion system; settings: by restoring E-cadherin-mediated cell adhesion system; Nam et al., 2002; cited from earlier work
[3] = 10 μg/ml in fish water from 10 hpf
[4] = 3 μg/ml in fish water from 10 hpf

O=C1Nc2ccc(I)cc2/C1=C/c1cc(Br)c(O)c(Br)c1 [GW-5074]
Effects ([1]; 1 μg/ml in fish water from 10 hpf): Cytotoxic, non-specific effects

CC[C@H](C)[C@@H](CO[C@@H](Cc1ccccc1)C(=O)N[C@@H](CCS(C)(=O)=O)C(=O)OC(C)C)NC[C@@H](N)CS [L-744,832]
Effects [1, 3]: NO

O=c1cc(N2CCOCC2)oc2c(-c3ccccc3)cccc12 [LY294002]
Effects [1, 4]: NO

CC[C@H](C)C(=O)O[C@H]1C[C@@H](C)C=C2C=C[C@H](C)[C@H](CC[C@@H]3C[C@@H](O)CC(=O)O3)[C@H]21 [Lovastatin]
Effects ([1]; 0.003 μg/ml in fish water from 10 hpf): Cytotoxic, non-specific effects

CCCC[C@@H](C)/C=C(C)/C=C(\C)C(=O)NC1=C[C@@](O)(/C=C/C=C/C=C/C(=O)NC2=C(O)CCC2=O)[C@@H]2O[C@@H]2C1=O [Manumycin A]
Effects [1, 4]: NO

COc1cccc(-c2cc(=O)c3ccccc3o2)c1N [PD98059]
growth of the EGFP-positive cells ([1]; 3 ng/ml): strongly impairs growth
shape and attachment of EGFP-positive cells ([1]; 3 ng/ml, by 72 hpf): smaller, maintain flat shape and remain attached to the embryo
Effects [1, 4]: preserves the epithelial
concentration at which toxic effects on development become serious (developing embryo; zebrafish, in vivo): 10 ng/mL

Cc1ccc(-c2nn(C(C)(C)C)c3ncnc(N)c23)cc1 [PP1]
specific effect on the EGFP-positive cells [1]: considerably reduced
effect on the transformed cells [1]: maintained flat shape while continued to grow
Effects [1, 4]: Keeps cells flat and attached
toxicity for developing embryo (developing embryo; 1 μg/ml): tolerable
toxicity for developing embryo (developing embryo; 3 μg/ml): toxic

CC(C)(C)n1nc(-c2ccc(Cl)cc2)c2c(N)ncnc21 [PP2]
metastatic spread of cancer [2]: reduced metastatic spread of cancer
specific effect on the EGFP-positive cells [1]: considerably reduced
effect on the transformed cells [1]: maintained flat shape while continued to grow
Effects [1, 4]: Keeps cells flat and attached
toxicity for developing embryo (developing embryo; 1 μg/ml): tolerable
toxicity for developing embryo (developing embryo; 3 μg/ml): toxic

Cc1ccc(NC(=O)c2cccc(N(C)C)c2)cc1NC(=O)c1ccc(O)cc1 [ZM336372]
Effects [1, 3]: NO
